Laboratory results as given in patent US11759455B2, “Substituted 1H-imidazo[4,5-b]pyridin-2(3H)-ones and their use as GLUN2B receptor modulators” (JANSSEN PHARMACEUTICA NV, priority 2016, dated 2023).

molecular target: T1, human GluN1/GluN2B NMDA receptors (Homo sapiens, UniProt Q13224); experiment: Cell-based calcium flux (FLIPR) assay on cloned human NR1/NR2B ion channels expressed in mammalian cells (standard and HTS buffer variants); details: HTS assay buffer (1.5 mM MgCl2 in dye loading buffer; 150 mM NaCl, 3 mM KCl in assay buffer), human GluN1/GluN2B, read-out: NR2B IC50 (μM) HTS assay;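 further: stable Tet-On inducible cell line, Ca2+ influx triggered by glutamate at about EC40 plus 10 µM glycine, fluorescent dye read-out over 5 min, normalized to control wells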
T1 construct: expressed in transfected cells
T1 sequence (Q13224 27-1484, other chains not shown): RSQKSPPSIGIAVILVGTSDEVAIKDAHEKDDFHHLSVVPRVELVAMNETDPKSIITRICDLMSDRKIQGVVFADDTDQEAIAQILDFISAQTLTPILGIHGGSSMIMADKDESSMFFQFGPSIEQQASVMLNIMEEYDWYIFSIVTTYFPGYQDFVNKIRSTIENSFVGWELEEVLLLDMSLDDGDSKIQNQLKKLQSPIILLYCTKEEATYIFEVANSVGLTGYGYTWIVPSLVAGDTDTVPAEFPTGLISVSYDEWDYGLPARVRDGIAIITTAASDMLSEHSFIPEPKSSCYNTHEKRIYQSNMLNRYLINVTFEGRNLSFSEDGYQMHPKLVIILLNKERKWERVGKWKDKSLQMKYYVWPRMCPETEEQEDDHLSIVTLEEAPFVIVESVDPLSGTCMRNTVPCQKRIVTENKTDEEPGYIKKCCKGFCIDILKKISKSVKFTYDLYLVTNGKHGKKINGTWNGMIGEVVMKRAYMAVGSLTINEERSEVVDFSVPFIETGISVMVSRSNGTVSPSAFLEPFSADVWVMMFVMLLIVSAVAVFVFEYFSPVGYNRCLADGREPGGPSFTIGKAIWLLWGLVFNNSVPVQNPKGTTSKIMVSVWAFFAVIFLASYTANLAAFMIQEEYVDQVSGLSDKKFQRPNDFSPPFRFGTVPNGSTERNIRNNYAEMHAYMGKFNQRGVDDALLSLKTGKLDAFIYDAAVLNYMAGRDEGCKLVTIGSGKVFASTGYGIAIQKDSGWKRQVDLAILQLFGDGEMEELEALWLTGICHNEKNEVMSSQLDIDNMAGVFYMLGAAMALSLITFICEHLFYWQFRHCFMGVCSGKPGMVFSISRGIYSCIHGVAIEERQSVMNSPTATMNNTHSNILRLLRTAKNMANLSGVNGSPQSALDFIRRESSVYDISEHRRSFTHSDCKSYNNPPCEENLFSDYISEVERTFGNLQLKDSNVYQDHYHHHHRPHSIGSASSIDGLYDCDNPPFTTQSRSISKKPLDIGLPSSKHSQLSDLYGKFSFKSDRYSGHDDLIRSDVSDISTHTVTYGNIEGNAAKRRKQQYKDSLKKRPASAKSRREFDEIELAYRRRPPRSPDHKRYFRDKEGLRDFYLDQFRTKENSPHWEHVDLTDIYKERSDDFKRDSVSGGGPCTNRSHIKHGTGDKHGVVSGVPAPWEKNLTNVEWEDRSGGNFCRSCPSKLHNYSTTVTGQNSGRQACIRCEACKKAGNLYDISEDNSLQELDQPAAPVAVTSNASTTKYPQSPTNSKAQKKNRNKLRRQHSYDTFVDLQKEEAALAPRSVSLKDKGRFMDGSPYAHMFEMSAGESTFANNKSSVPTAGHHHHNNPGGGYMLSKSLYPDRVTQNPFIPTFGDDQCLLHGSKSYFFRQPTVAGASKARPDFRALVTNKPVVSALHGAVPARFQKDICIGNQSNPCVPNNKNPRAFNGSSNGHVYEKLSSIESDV

| SMILES | IC50 [µM] |
| --- | --- |
| COc1ccc(-c2cnc3[nH]c(=O)n(Cc4ccccc4C#N)c3c2)c(OC)c1 [Example 487, 2-[[6-(2,4-Dimethoxyphenyl)-2-oxo-3H-imidazo[4,5-b]pyridin-1-yl]methyl]benzonitrile] | 2.57 |
| Cc1cc(F)ccc1-c1cnc2[nH]c(=O)n(Cc3ccc(F)cc3)c2c1 [Example 492, 6-(4-Fluoro-2-methyl-phenyl)-1-[(4-fluorophenyl)methyl]-3H-imidazo[4,5-b]pyridin-2-one] | 6.12 |
| COc1cccc(-c2cnc3[nH]c(=O)n(Cc4ccc(F)cc4)c3c2)c1OC [Example 493, 6-(2,3-Dimethoxyphenyl)-1-[(4-fluorophenyl)methyl]-3H-imidazo[4,5-b]pyridin-2-one] | 1.01 |
| Cc1cc(C)cc(-c2cnc3[nH]c(=O)n(Cc4cccc(F)c4)c3c2)c1 [Example 495, 6-(3,5-Dimethylphenyl)-1-[(3-fluorophenyl)methyl]-3H-imidazo[4,5-b]pyridin-2-one] | 2.81 |
| COc1ccc(-c2cnc3[nH]c(=O)n(Cc4cccc(F)c4)c3c2)c(OC)c1 [Example 496, 6-(2,4-Dimethoxyphenyl)-1-[(3-fluorophenyl)methyl]-3H-imidazo[4,5-b]pyridin-2-one] | 2.79 |
| CCOc1ccccc1-c1cnc2[nH]c(=O)n(Cc3cccc(F)c3)c2c1 [Example 497, 6-(2-Ethoxyphenyl)-1-[(3-fluorophenyl)methyl]-3H-imidazo[4,5-b]pyridin-2-one] | 1.95 |
| COc1cc(Cn2c(=O)[nH]c3ncc(-c4c(F)cccc4OC)cc32)cc(OC)c1 [Example 509, 1-[(3,5-Dimethoxyphenyl)methyl]-6-(2-fluoro-6-methoxy-phenyl)-3H-imidazo[4,5-b]pyridin-2-one] | 0.884 |
| CC(C)c1ccc(Cn2c(=O)[nH]c3ncc(-c4ccc(Cl)cc4)cc32)cc1 [Example 511, 6-(4-Chlorophenyl)-1-[(4-isopropylphenyl)methyl]-3H-imidazo[4,5-b]pyridin-2-one] | > 29 |
| CCOc1ccc(F)cc1-c1cnc2[nH]c(=O)n(Cc3c(C)noc3C)c2c1 [Example 514, 1-[(3,5-Dimethylisoxazol-4-yl)methyl]-6-(2-ethoxy-5-fluoro-phenyl)-3H-imidazo[4,5-b]pyridin-2-one] | > 29 |
| COc1ccc(-c2cnc3[nH]c(=O)n(Cc4cc(C)on4)c3c2)cc1C [Example 515, 6-(4-Methoxy-3-methyl-phenyl)-1-[(5-methylisoxazol-3-yl)methyl]-3H-imidazo[4,5-b]pyridin-2-one] | 0.156 |

Next, values leading:

| IC50 [µM] | SMILES |
| --- | --- |
| 1.8 | Cc1cc(F)ccc1-c1cnc2[nH]c(=O)n(Cc3ccccc3C#N)c2c1 [Example 483, 2-[[6-(4-Fluoro-2-methyl-phenyl)-2-oxo-3H-imidazo[4,5-b]pyridin-1-yl]methyl]benzonitrile] |
| 3.84 | N#Cc1cccc(-c2cnc3[nH]c(=O)n(Cc4ccccc4C#N)c3c2)c1 [Example 486, 2-[[6-(3-Cyanophenyl)-2-oxo-3H-imidazo[4,5-b]pyridin-1-yl]methyl]benzonitrile] |
| 4.95 | Cc1cc(C)cc(-c2cnc3[nH]c(=O)n(Cc4ccccc4C#N)c3c2)c1 [Example 488, 2-[[6-(3,5-Dimethylphenyl)-2-oxo-3H-imidazo[4,5-b]pyridin-1-yl]methyl]benzonitrile] |
| 1.28 | CCOc1ccc(F)cc1-c1cnc2[nH]c(=O)n(Cc3ccccc3C#N)c2c1 [Example 489, 2-[[6-(2-Ethoxy-5-fluoro-phenyl)-2-oxo-3H-imidazo[4,5-b]pyridin-1-yl]methyl]benzonitrile] |
| 5.64 | CCOc1ccc(F)cc1-c1cnc2[nH]c(=O)n(Cc3cccc(F)c3)c2c1 [Example 494, 6-(2-Ethoxy-5-fluoro-phenyl)-1-[(3-fluorophenyl)methyl]-3H-imidazo[4,5-b]pyridin-2-one] |
| 0.79 | COc1cc(F)ccc1-c1cnc2[nH]c(=O)n(Cc3ccc(F)cc3)c2c1 [Example 501, 6-(4-Fluoro-2-methoxy-phenyl)-1-[(4-fluorophenyl)methyl]-3H-imidazo[4,5-b]pyridin-2-one] |
| 4.86 | O=c1[nH]c2ncc(-c3ccc(F)c(Cl)c3)cc2n1Cc1ccc(F)cc1 [Example 502, 6-(3-Chloro-4-fluoro-phenyl)-1-[(4-fluorophenyl)methyl]-3H-imidazo[4,5-b]pyridin-2-one] |
| 5.49 | CCOc1ccccc1-c1cnc2[nH]c(=O)n(Cc3ccccc3F)c2c1 [Example 503, 6-(2-Ethoxyphenyl)-1-[(2-fluorophenyl)methyl]-3H-imidazo[4,5-b]pyridin-2-one] |
| 4.13 | O=c1[nH]c2ncc(-c3cc(F)cc(F)c3)cc2n1Cc1cccc(Cl)c1 [Example 504, 1-[(3-Chlorophenyl)methyl]-6-(3,5-difluorophenyl)-3H-imidazo[4,5-b]pyridin-2-one] |
| > 29 | COc1cccc(Cn2c(=O)[nH]c3ncc(-c4cccnc4)cc32)c1 [Example 506, 1-[(3-Methoxyphenyl)methyl]-6-(3-pyridyl)-3H-imidazo[4,5-b]pyridin-2-one] |
| 8.1 | COc1cccc(Cn2c(=O)[nH]c3ncc(-c4cc(C)cs4)cc32)c1 [Example 507, 1-[(3-Methoxyphenyl)methyl]-6-(4-methyl-2-thienyl)-3H-imidazo[4,5-b]pyridin-2-one] |
| 0.463 | COc1ccc(Cn2c(=O)[nH]c3ncc(-c4cc(F)cc(F)c4)cc32)cc1 [Example 508, 6-(3,5-Difluorophenyl)-1-[(4-methoxyphenyl)methyl]-3H-imidazo[4,5-b]pyridin-2-one] |
| 17.4 | COc1cc(Cn2c(=O)[nH]c3ncc(-c4cccc(C(F)(F)F)c4)cc32)cc(OC)c1 [Example 510, 1-[(3,5-Dimethoxyphenyl)methyl]-6-[3-(trifluoromethyl)phenyl]-3H-imidazo[4,5-b]pyridin-2-one] |
| > 29 | COc1ccnc(Cn2c(=O)[nH]c3ncc(-c4ccc(C(C)(C)C)cc4)cc32)c1OC [Example 512, 6-(4-tert-Butylphenyl)-1-[(3,4-dimethoxy-2-pyridyl)methyl]-3H-imidazo[4,5-b]pyridin-2-one] |
| > 29 | Cc1noc(C)c1Cn1c(=O)[nH]c2ncc(-c3cccc(C#N)c3)cc21 [Example 513, 3-[1-[(3,5-Dimethylisoxazol-4-yl)methyl]-2-oxo-3H-imidazo[4,5-b]pyridin-6-yl]benzonitrile] |

same assay, conditions: standard assay buffer (0.5 mM MgCl2 in dye loading buffer; 137 mM NaCl, 4 mM KCl in assay buffer), human GluN1/GluN2B, read-out: NR2B IC50 (μM) standard assay

| SMILES | IC50 [µM] |
| --- | --- |
| CCOc1ccccc1-c1cnc2[nH]c(=O)n(Cc3ccccc3C#N)c2c1 [Example 484, 2-[[6-(2-Ethoxyphenyl)-2-oxo-3H-imidazo[4,5-b]pyridin-1-yl]methyl]benzonitrile] | 1.39 |
| COc1ccc(-c2cnc3[nH]c(=O)n(Cc4cccc(F)c4)c3c2)cc1C [Example 498, 1-[(3-Fluorophenyl)methyl]-6-(4-methoxy-3-methyl-phenyl)-3H-imidazo[4,5-b]pyridin-2-one] | 2.22 |
| COc1cc(F)ccc1-c1cnc2[nH]c(=O)n(Cc3cccc(F)c3)c2c1 [Example 499, 6-(4-Fluoro-2-methoxy-phenyl)-1-[(3-fluorophenyl)methyl]-3H-imidazo[4,5-b]pyridin-2-one] | 0.09 |
| Cc1cc(C)cc(-c2cnc3[nH]c(=O)n(Cc4cc(C)on4)c3c2)c1 [Example 516, 6-(3,5-Dimethylphenyl)-1-[(5-methylisoxazol-3-yl)methyl]-3H-imidazo[4,5-b]pyridin-2-one] | 0.491 |
| COc1ccc(-c2cnc3[nH]c(=O)n(Cc4cc(C)on4)c3c2)c(OC)c1 [Example 518, 6-(2,4-Dimethoxyphenyl)-1-[(5-methylisoxazol-3-yl)methyl]-3H-imidazo[4,5-b]pyridin-2-one] | 0.808 |
| COc1cc(F)ccc1-c1cnc2[nH]c(=O)n(Cc3cc(C)on3)c2c1 [Example 520, 6-(4-Fluoro-2-methoxy-phenyl)-1-[(5-methylisoxazol-3-yl)methyl]-3H-imidazo[4,5-b]pyridin-2-one] | 0.019 |
| CCOc1ccc(F)cc1-c1cnc2[nH]c(=O)n(Cc3cc(C)on3)c2c1 [Example 521, 6-(2-Ethoxy-5-fluoro-phenyl)-1-[(5-methylisoxazol-3-yl)methyl]-3H-imidazo[4,5-b]pyridin-2-one] | 0.132 |

Next, values leading:

| IC50 [µM] | SMILES |
| --- | --- |
| 0.031 | COc1cccc(-c2cnc3[nH]c(=O)n(Cc4ccccc4C#N)c3c2)c1 [Example 485, 2-[[6-(3-Methoxyphenyl)-2-oxo-3H-imidazo[4,5-b]pyridin-1-yl]methyl]benzonitrile] |
| 0.046 | COc1cc(F)ccc1-c1cnc2[nH]c(=O)n(Cc3ccccc3C#N)c2c1 [Example 490, 2-[[6-(4-Fluoro-2-methoxy-phenyl)-2-oxo-3H-imidazo[4,5-b]pyridin-1-yl]methyl]benzonitrile] |
| 0.053 | COc1ccc(-c2cnc3[nH]c(=O)n(Cc4ccccc4C#N)c3c2)cc1F [Example 491, 2-[[6-(3-Fluoro-4-methoxy-phenyl)-2-oxo-3H-imidazo[4,5-b]pyridin-1-yl]methyl]benzonitrile] |
| 6.08 | CN(C)c1cccc(-c2cnc3[nH]c(=O)n(Cc4cccc(F)c4)c3c2)c1 [Example 500, 6-[3-(Dimethylamino)phenyl]-1-[(3-fluorophenyl)methyl]-3H-imidazo[4,5-b]pyridin-2-one] |
| 1.64 | COc1cccc(Cn2c(=O)[nH]c3ncc(-c4ccc(F)cc4OC)cc32)c1 [Example 505, 6-(4-Fluoro-2-methoxy-phenyl)-1-[(3-methoxyphenyl)methyl]-3H-imidazo[4,5-b]pyridin-2-one] |
| 0.709 | CCOc1ccccc1-c1cnc2[nH]c(=O)n(Cc3cc(C)on3)c2c1 [Example 517, 6-(2-Ethoxyphenyl)-1-[(5-methylisoxazol-3-yl)methyl]-3H-imidazo[4,5-b]pyridin-2-one] |
| 0.139 | COc1ccc(-c2cnc3[nH]c(=O)n(Cc4cc(C)on4)c3c2)cc1F [Example 519, 6-(3-Fluoro-4-methoxy-phenyl)-1-[(5-methylisoxazol-3-yl)methyl]-3H-imidazo[4,5-b]pyridin-2-one] |
